Reference: patent publication US20230372318A1, “METHODS FOR TREATING A SUBJECT HAVING MULTIPLE SYSTEM ATROPHY” (Theravance Biopharma R&D IP, LLC, priority 2022, published 2023)

Test system: subjects with primary autonomic failures (MSA, PD, or PAF) and symptomatic nOH
Test: Phase 3 22-week randomized withdrawal study in symptomatic nOH (Example 7)
Type: in vivo, human
Design: OHSA composite score, LS Mean / OHSA composite score, Mean / OHSA composite score, Median / OHSA composite score, LS Mean Difference / OHDAS item 1 (standing for a short time) score, Mean / OHDAS item 1 (standing for a short time) score, Median / OHDAS item 1 (standing for a short time) score, LS Mean / OHDAS item 1 (standing for a short time) score, LS Mean Difference: scale not given here
Details: MSA subjects; for OHSA composite score, LS Mean / OHSA composite score, Mean / OHSA composite score, Median / OHSA composite score, LS Mean Difference: change at week 22, end of 6-week double-blind period; for OHSA composite score, LS Mean Difference / OHDAS item 1 (standing for a short time) score, LS Mean Difference: vs placebo; for OHDAS item 1 (standing for a short time) score, LS Mean / OHDAS item 1 (standing for a short time) score, Mean / OHDAS item 1 (standing for a short time) score, Median / OHDAS item 1 (standing for a short time) score, LS Mean Difference: week 22, end of 6-week double-blind period
Description: The study consisted of a 16-week open-label (OL) treatment period with ampreloxetine followed by a 6-week double-blind randomized withdrawal period where subjects were administered either ampreloxetine or placebo.
Eligible subjects were either (i) completers of the study of Example 6 (“Completers Group”), or (ii) symptomatic nOH subjects meeting all applicable study inclusion criteria and none of the applicable exclusion criteria (“De Novo Group”).
A 4-week screening period applied to the De Novo Group only and the Screening visit was conducted in clinic for all De Novo Group subjects.
A total of 203 subjects entered this study (170 subjects from Example 6 (85 from the ampreloxetine group and 85 from the placebo group) and 33 de novo subjects). During the OL period, 55 subjects discontinued treatment. At 16 weeks, 64 subjects were randomized to the ampreloxetine group (6 subjects discontinued the study) and 64 subjects were randomized to the placebo group (3 subjects discontinued the study). A total of 119 subjects completed the study. Of the 128 subjects entering the randomized period, 40 subjects had MSA (31%); 68 subjects had PD (53%); and 20 subjects had PAF (16%) (in each category, the subjects were split equally between ampreloxetine and placebo).
Beginning on Day 2, subjects received a single dose of 10 mg ampreloxetine once daily (QD) and continued thereafter for the 16-week duration of the OL treatment period. Following this 16-week OL treatment period, subjects were randomized to either continue on the active treatment or placebo (“PBO”) for a period of 6 weeks.
Subjects enrolled into the OL period of the study had visits scheduled for Day 15, Day 29, and every 4 weeks thereafter for assessments as outlined in the Schedule of Study Procedures. […] Those subjects not meeting this continuation criterion were discontinued and underwent an end of study visit. The end of study visit was completed within 2 weeks from the date of the last dose.
Following the completion of a total of 16 weeks OL treatment with ampreloxetine (V6), subjects were assessed for randomization in a 1:1 manner. Eligible subjects received 6 weeks of double-blind treatment of ampreloxetine or PBO once daily. Only subjects with OHSA #1 score of ≤7 were eligible for randomization for the double-blind treatment period.
Exploratory assessments included: orthostatic standing test; NMSS; EQ-5D-5L; HADS; and BSFC-s. For subjects with PD, exploratory assessments included: Unified Parkinson's Disease Rating Scale (UPDRS); and Parkinson's Disease Questionaire-8 (PDQ-8). For subjects with MSA, exploratory assessments included: Unified Multiple System Atrophy Rating Scale (UMSARS); and Composite Autonomic Symptom Score-31 (COMPASS-31).
The secondary endpoints included: • (a) Change from baseline in OHSA #1 at Week 6 post randomization (V9, D155); • (b) Change from baseline in OHSA composite score at Week 6 post randomization (V9, D155); • (c) Change from baseline in OHDAS composite score at Week 6 post randomization (V9, D155); • (d) Change from baseline in PGI-S at Week 6 post randomization (V9, D155); • (e) Change from baseline in percentage of time spent in standing position as measured by a wearable device at Week 6 post randomization (V9, D155); and • (f) Change from baseline in average number of steps taken as measured by a wearable device at Week 6 post randomization (V9, D155).

SMILES: Fc1cc(F)c(OCc2ccccc2C2CCNCC2)c(F)c1 [Ampreloxetine, 4-[2-(2,4,6-trifluorophenoxymethyl)phenyl]piperidine]
- OHSA composite score, LS Mean (<65 Years): 0.55
- OHSA composite score, Mean (<65 Years): 0.8
- OHSA composite score, Median (<65 Years): 0.4
- OHSA composite score, LS Mean Difference (<65 Years): −1.09
- OHDAS item 1 (standing for a short time) score, LS Mean (<65 Years): −0.5
- OHDAS item 1 (standing for a short time) score, Mean (<65 Years): 0.0
- OHDAS item 1 (standing for a short time) score, Median (<65 Years): 0.0
- OHDAS item 1 (standing for a short time) score, LS Mean Difference (<65 Years): −2.9
- OHSA composite score, LS Mean (>=65 Years): −0.60
- OHSA composite score, Mean (>=65 Years): −0.75
- OHSA composite score, Median (>=65 Years): −0.70
- OHSA composite score, LS Mean Difference (>=65 Years): −2.17
- OHDAS item 1 (standing for a short time) score, LS Mean (>=65 Years): −0.4
- OHDAS item 1 (standing for a short time) score, Mean (>=65 Years): −0.3
- OHDAS item 1 (standing for a short time) score, Median (>=65 Years): 0.0
- OHDAS item 1 (standing for a short time) score, LS Mean Difference (>=65 Years): −1.0
- OHSA composite score, LS Mean (Female): 0.2078
- OHSA composite score, Mean (Female): 0.23
- OHSA composite score, Median (Female): 0.00
- OHSA composite score, LS Mean Difference (Female): −1.3996
- OHDAS item 1 (standing for a short time) score, LS Mean (Female): 0.2
- OHDAS item 1 (standing for a short time) score, Mean (Female): 0.3
- OHDAS item 1 (standing for a short time) score, Median (Female): 0.0
- OHDAS item 1 (standing for a short time) score, LS Mean Difference (Female): −1.0
- OHSA composite score, LS Mean (MSA diagnosis <1.3 years): 0.73
- OHSA composite score, Mean (MSA diagnosis <1.3 years): 0.67
- OHSA composite score, Median (MSA diagnosis <1.3 years): 0.70
- OHSA composite score, LS Mean Difference (MSA diagnosis <1.3 years): −1.24
- OHDAS item 1 (standing for a short time) score, LS Mean (MSA diagnosis <1.3 years): 0.7
- OHDAS item 1 (standing for a short time) score, Mean (MSA diagnosis <1.3 years): 0.1
- OHDAS item 1 (standing for a short time) score, Median (MSA diagnosis <1.3 years): 0.0
- OHDAS item 1 (standing for a short time) score, LS Mean Difference (MSA diagnosis <1.3 years): −2.7
- OHSA composite score, LS Mean (MSA diagnosis >=1.3 years): −0.67
- OHSA composite score, Mean (MSA diagnosis >=1.3 years): −0.64
- OHSA composite score, Median (MSA diagnosis >=1.3 years): −0.10
- OHSA composite score, LS Mean Difference (MSA diagnosis >=1.3 years): −1.78
- OHDAS item 1 (standing for a short time) score, LS Mean (MSA diagnosis >=1.3 years): −0.6
- OHDAS item 1 (standing for a short time) score, Mean (MSA diagnosis >=1.3 years): −0.4
- OHDAS item 1 (standing for a short time) score, Median (MSA diagnosis >=1.3 years): 0.0
- OHDAS item 1 (standing for a short time) score, LS Mean Difference (MSA diagnosis >=1.3 years): −0.7
- OHSA composite score, LS Mean (MSA-C): 1.10
- OHSA composite score, Mean (MSA-C): 0.76
- OHSA composite score, Median (MSA-C): 0.50
- OHSA composite score, LS Mean Difference (MSA-C): −0.68
- OHDAS item 1 (standing for a short time) score, LS Mean (MSA-C): 0.9
- OHDAS item 1 (standing for a short time) score, Mean (MSA-C): 0.7
- OHDAS item 1 (standing for a short time) score, Median (MSA-C): 0.0
- OHDAS item 1 (standing for a short time) score, LS Mean Difference (MSA-C): −1.0
- OHSA composite score, LS Mean (MSA-P): −0.50
- OHSA composite score, Mean (MSA-P): −0.39
- OHSA composite score, Median (MSA-P): 0.05
- OHSA composite score, LS Mean Difference (MSA-P): −1.72
- OHDAS item 1 (standing for a short time) score, LS Mean (MSA-P): −1.2
- OHDAS item 1 (standing for a short time) score, Mean (MSA-P): −0.7
- OHDAS item 1 (standing for a short time) score, Median (MSA-P): 0.0
- OHDAS item 1 (standing for a short time) score, LS Mean Difference (MSA-P): −2.7
- OHSA composite score, LS Mean (Male): −0.3923
- OHSA composite score, Mean (Male): −0.46
- OHSA composite score, Median (Male): 0.20
- OHSA composite score, LS Mean Difference (Male): −1.8762
- OHDAS item 1 (standing for a short time) score, LS Mean (Male): −1.2
- OHDAS item 1 (standing for a short time) score, Mean (Male): −0.8
- OHDAS item 1 (standing for a short time) score, Median (Male): 0.0
- OHDAS item 1 (standing for a short time) score, LS Mean Difference (Male): −2.8
- OHSA composite score, Mean (Overall): −0.05
- OHSA composite score, Median (Overall): 0.05
- OHSA composite score, LS Mean (Overall, placebo 1.54, p=0.0056): −0.03
- OHSA composite score, LS Mean Difference (Overall): −1.57
- OHDAS item 1 (standing for a short time) score, LS Mean (Overall): −0.4
- OHDAS item 1 (standing for a short time) score, Mean (Overall): −0.2
- OHDAS item 1 (standing for a short time) score, Median (Overall): 0.0
- OHDAS item 1 (standing for a short time) score, LS Mean Difference (Overall): −2.0
- OHSA composite score, LS Mean (Pre treatment baseline OHSA1 <7): −0.22
